Experiments:
[1] = test system: CRL:NMRI BR mice; assay: Acute intravenous toxicity in mice; format: in vivo; details: mouse
Protocol: A control and five dose groups were involved in the mouse study, at dose levels of 200 mg/kg, 250 mg/kg, 300 mg/kg, 360 mg/kg and 450 mg/kg (equal to […], 155 mg/kg, 186 mg/kg, 223 mg/kg and 279 mg/kg free base, n=5 animals/sex/group).

[2] = dog, in vivo
[3] = test system: healthy young male subjects; assay: Multiple dose safety study in male healthy volunteers; details: human, 50 or 100 mg tid, 10 days
Protocol: The study was designed as a randomized, double-blind and single-center study, without therapeutic benefit for the subjects.
The study was performed in 18 healthy subjects divided into 2 groups of 9 subjects (groups A and B). Subjects of group A received 50 mg Compound I as a single dose on the morning of day 1; then 50 mg Compound I tid on days 2 to 9; and a single 50 mg dose on the morning of day 10.

[4] = test system: CRL:NMRI BR mice; assay: Acute intraperitoneal toxicity in mice; format: in vivo; details: mouse
Protocol: Acute intraperitoneal toxicity studies were performed in rats (CRL(WI:)BR) and in mice (CRL: NMRI BR).
In the case of the mouse study a control and five dose groups were involved at dose levels of 850 mg/kg, 1100 mg/kg, 1500 mg/kg, 1900 mg/kg and 2600 mg/kg (equal to 527 mg/kg, 682 mg/kg, 930 mg/kg, 1178 mg/kg and 1613 mg/kg free base, n=5 animals/sex/group).

[O-][n+]1cccc(/C(Cl)=N/OC[C@H](O)CN2CCCCC2)c1 [Compound I, N-[2-hydroxy-3-(1-piperidinyl)-propoxy]-pyridine-1-oxide-3-carboximidoyl chloride]
Intravenous LD50 value ([1]; female, by base): 158 - by base mg/kg | Intravenous LD50 value ([1]; female, by citrate): 254 - by citrate mg/kg | Intravenous LD50 value ([1]; male, by base): 190 (164-223) by base mg/kg | Intravenous LD50 value ([1]; male, by citrate): 307 (265-359) by citrate mg/kg | major elimination route [2]: eliminated with urine | AUC of radioactivity relative to parent compound ([2]; iv): about 8 times | central volume of distribution Vc ([2]; iv, 6.45 mg/kg): 1.50 ± 0.5 L/kg | first apparent elimination half-life ([2]; iv, 6.45 mg/kg): 19.8 ± 30.6 min | second apparent elimination half-life ([2]; iv, 6.45 mg/kg): 75.6 ± 12 min | mean AUC of radioactivity relative to parent compound ([2]; po): about 10 times | peak concentration of radioactivity relative to Compound I ([2]; po): 1.7 times | radioactivity concentration at two weeks ([2]; po): 0.014±0.004 μgE/ml | serum radioactivity at 12 h, share of peak ([2]; po): about 15% | absorption half-life ([2]; po, 6.45 mg/kg): 22.8 min | oral bioavailability ([2]; po, 6.45 mg/kg): 77% | oral bioavailability of total radioactivity ([2]; po, 6.45 mg/kg): 104% | peak concentration ([2]; po, 6.45 mg/kg): 0.94 ± 0.37 µg/mL | start of absorption after dosing ([2]; po, 6.45 mg/kg): 15 to 120 min | time of peak concentration ([2]; po, 6.45 mg/kg): 1 to 2 h | serious adverse events or deaths [3]: no serious adverse events or deaths | Intraperitoneal LD50 value ([4]; female, by base): 738 - by base mg/kg | Intraperitoneal LD50 value ([4]; female, by citrate): 1189 - by citrate mg/kg | Intraperitoneal LD50 value ([4]; male, by base): 839 (674-1023) by base mg/kg
